Molecular target: CFTR-mediated chloride transport (Homo sapiens, UniProt P13569)
Type: cell-based
Details: enteroid cells incubated with test compound 18-24 hours, acute 10 μM forskolin and 300 nM Compound III; for Max. Activity: % of chloride transport with 3 μM Compound A, 3 μM Compound II and 300 nM acute Compound III triple combination control
Outline: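 Human intestinal enteroid cells incubated with compound 18–24 h at 37° C., then membrane potential dye (FLIPR) read 15 min after chloride-free stimulation with 10 μM forskolin, 100 μM IBMX and 300 nM Compound III. AUC expressed as % of triple-combination control (3 μM Compound A, 3 μM Compound II, 300 nM Compound III).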

Sequence of CFTR-mediated chloride transport (P13569 whole entry, looked up): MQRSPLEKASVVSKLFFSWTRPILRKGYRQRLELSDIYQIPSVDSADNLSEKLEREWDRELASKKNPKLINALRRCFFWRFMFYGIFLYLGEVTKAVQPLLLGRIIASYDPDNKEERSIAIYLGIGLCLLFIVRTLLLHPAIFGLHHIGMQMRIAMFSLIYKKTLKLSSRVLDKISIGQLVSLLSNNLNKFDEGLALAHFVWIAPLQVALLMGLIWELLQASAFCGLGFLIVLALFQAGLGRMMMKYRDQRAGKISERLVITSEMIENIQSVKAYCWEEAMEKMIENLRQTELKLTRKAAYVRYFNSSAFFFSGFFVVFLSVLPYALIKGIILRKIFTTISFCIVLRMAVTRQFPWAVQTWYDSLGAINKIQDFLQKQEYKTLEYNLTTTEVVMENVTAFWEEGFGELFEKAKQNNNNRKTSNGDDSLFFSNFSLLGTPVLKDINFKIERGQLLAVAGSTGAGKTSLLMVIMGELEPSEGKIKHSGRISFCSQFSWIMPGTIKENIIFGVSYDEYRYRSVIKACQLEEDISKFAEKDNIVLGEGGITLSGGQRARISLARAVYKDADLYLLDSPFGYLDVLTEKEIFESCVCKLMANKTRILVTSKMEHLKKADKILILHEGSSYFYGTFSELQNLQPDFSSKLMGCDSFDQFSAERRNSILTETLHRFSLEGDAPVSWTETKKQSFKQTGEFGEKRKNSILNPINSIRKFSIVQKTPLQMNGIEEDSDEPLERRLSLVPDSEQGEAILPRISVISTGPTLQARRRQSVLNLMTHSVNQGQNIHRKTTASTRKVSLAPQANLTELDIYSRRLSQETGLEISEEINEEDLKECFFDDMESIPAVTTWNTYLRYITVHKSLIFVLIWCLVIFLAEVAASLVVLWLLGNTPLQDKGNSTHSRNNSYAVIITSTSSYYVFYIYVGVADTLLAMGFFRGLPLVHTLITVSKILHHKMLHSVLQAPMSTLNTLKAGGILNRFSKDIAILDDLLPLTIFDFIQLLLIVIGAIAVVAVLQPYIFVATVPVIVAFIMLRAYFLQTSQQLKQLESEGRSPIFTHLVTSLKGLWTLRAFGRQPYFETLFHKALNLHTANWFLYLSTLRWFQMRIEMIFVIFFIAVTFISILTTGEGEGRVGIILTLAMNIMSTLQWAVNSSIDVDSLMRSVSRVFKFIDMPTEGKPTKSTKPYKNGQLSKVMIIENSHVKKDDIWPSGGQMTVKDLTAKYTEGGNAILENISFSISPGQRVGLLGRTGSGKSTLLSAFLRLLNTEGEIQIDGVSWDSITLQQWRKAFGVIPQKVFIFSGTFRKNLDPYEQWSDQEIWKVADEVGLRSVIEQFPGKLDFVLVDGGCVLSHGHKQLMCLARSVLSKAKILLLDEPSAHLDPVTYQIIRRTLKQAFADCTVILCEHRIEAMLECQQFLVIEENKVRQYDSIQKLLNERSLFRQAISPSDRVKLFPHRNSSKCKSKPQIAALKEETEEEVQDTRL

Row | Structure (SMILES) | EC50 [nM] | Max. Activity
1 | C[C@@H]1CC[C@H]2CN(c3nc(N4CCN(CCC(C)(C)C)C4=O)ccc3C(=O)NS(=O)(=O)c3cccc(n3)N1)C(C)(C)C2 (single isomer, unassigned) [Compound 215, 8-[3-(3,3-dimethylbutyl)-2-oxoimidazolidin-1-yl]-12,12,17-trimethyl-2λ^6-thia-3,9,11,18,23-pentaazatetracyclo[17.3.1.111,14.05,10]tetracosa-1(22),5,7,9,19(23),20-hexaene-2,2,4-trione] | > 3000 | + (+ is <30%)
2 | C[C@@H]1CC[C@H]2CN(c3nc(N4CCN(CCC(C)(C)C)C4=O)ccc3C(=O)NS(=O)(=O)c3cccc(n3)N1)C(C)(C)C2 (single isomer, unassigned) [Compound 216, 8-[3-(3,3-dimethylbutyl)-2-oxoimidazolidin-1-yl]-12,12,17-trimethyl-2λ^6-thia-3,9,11,18,23-pentaazatetracyclo[17.3.1.111,14.05,10]tetracosa-1(22),5,7,9,19(23),20-hexaene-2,2,4-trione] | < 1000 | +++ (+++ is >60%)
3 | C[C@@H]1CC[C@H]2CN(c3nc(N4CCN(CCC(C)(C)C)C4=O)ccc3C(=O)NS(=O)(=O)c3cccc(n3)N1)C(C)(C)C2 (single isomer, unassigned) [Compound 218, 8-[3-(3,3-dimethylbutyl)-2-oxoimidazolidin-1-yl]-12,12,17-trimethyl-2λ^6-thia-3,9,11,18,23-pentaazatetracyclo[17.3.1.111,14.05,10]tetracosa-1(22),5,7,9,19(23),20-hexaene-2,2,4-trione] | > 3000 | + (+ is <30%)
4 | C[C@@H]1CC[C@H]2CN(c3nc(N4CCN(CCC(C)(C)C)C4=O)ccc3C(=O)NS(=O)(=O)c3cccc(n3)N1)C(C)(C)C2 (single isomer, unassigned) [Compound 219, 8-[3-(3,3-dimethylbutyl)-2-oxoimidazolidin-1-yl]-12,12,17-trimethyl-2λ^6-thia-3,9,11,18,23-pentaazatetracyclo[17.3.1.111,14.05,10]tetracosa-1(22),5,7,9,19(23),20-hexaene-2,2,4-trione] | < 1000 | ++ (++ is 30-60%)
5 | CC1(C)C[C@H]2CCNc3cccc(n3)S(=O)(=O)NC(=O)c3ccc(-n4ccc(OCCCC5(C(F)(F)F)CC5)n4)nc3N1C2 (single isomer, unassigned) [Compound 234, 7,7-dimethyl-11-(3-{3-[1-(trifluoromethyl)cyclopropyl]propoxy}-1H-pyrazol-1-yl)-17λ^6-thia-2,8,10,16,22-pentaazatetracyclo[16.3.1.15,8.09,14]tricosa-1(22),9,11,13,18,20-hexaene-15,17,17-trione] | < 1000 | ++ (++ is 30-60%)
6 | CC1(C)C[C@H]2CCNc3cccc(n3)S(=O)(=O)NC(=O)c3ccc(-n4ccc(OCCCC5(C(F)(F)F)CC5)n4)nc3N1C2 (single isomer, unassigned) [Compound 235, 7,7-dimethyl-11-(3-{3-[1-(trifluoromethyl)cyclopropyl]propoxy}-1H-pyrazol-1-yl)-17λ^6-thia-2,8,10,16,22-pentaazatetracyclo[16.3.1.15,8.09,14]tricosa-1(22),9,11,13,18,20-hexaene-15,17,17-trione] | < 1000 | +++ (+++ is >60%)
7 | CC1(C)C[C@@H]2CCCNc3cccc(n3)S(=O)(=O)NC(=O)c3ccc(N4CCN(C[C@H]5CC[C@@H](C(F)(F)F)CC5)C4=O)nc3N1C2 (single isomer, unassigned) [Compound 239] | < 1000 | + (+ is <30%)
8 | CC1(C)C[C@@H]2CCCNc3cccc(n3)S(=O)(=O)NC(=O)c3ccc(N4CC[C@H](OCCC56CC7CC(CC(C7)C5)C6)C4=O)nc3N1C2 (single isomer, unassigned) [Compound 240] | < 1000 | ++ (++ is 30-60%)
9 | CC1(C)C[C@@H]2CCCNc3cccc(n3)S(=O)(=O)NC(=O)c3ccc(N4CC[C@H](OCCC56CC7CC(CC(C7)C5)C6)C4=O)nc3N1C2 (single isomer, unassigned) [Compound 241] | < 1000 | ++ (++ is 30-60%)
10 | CC1(C)C[C@@H]2CCCNc3cccc(n3)S(=O)(=O)NC(=O)c3ccc(N4CC[C@H](OCCCC5(C(F)(F)F)CC5)C4=O)nc3N1C2 (single isomer, unassigned) [Compound 242] | < 1000 | ++ (++ is 30-60%)
11 | CC1(C)C[C@@H]2CCCNc3cccc(n3)S(=O)(=O)NC(=O)c3ccc(N4CC[C@H](OCCCC5(C(F)(F)F)CC5)C4=O)nc3N1C2 (single isomer, unassigned) [Compound 243] | < 1000 | +++ (+++ is >60%)
12 | CC1(C)C[C@@H]2CCCNc3cccc(n3)S(=O)(=O)NC(=O)c3ccc(N4CC[C@H](OCC56CC7CC(CC(C7)C5)C6)C4=O)nc3N1C2 (single isomer, unassigned) [Compound 244] | < 1000 | ++ (++ is 30-60%)
13 | CC1(C)C[C@@H]2CCCNc3cccc(n3)S(=O)(=O)NC(=O)c3ccc(N4CC[C@H](OCC56CC7CC(CC(C7)C5)C6)C4=O)nc3N1C2 (single isomer, unassigned) [Compound 245] | < 1000 | +++ (+++ is >60%)
14 | CC(C)(C)CCCO[C@H]1CCN(c2ccc3c(n2)N2C[C@@H](CCCNc4cccc(n4)S(=O)(=O)NC3=O)CC2(C)C)C1=O (single isomer, unassigned) [Compound 246] | < 1000 | ++ (++ is 30-60%)
15 | CC(C)(C)CCCO[C@H]1CCN(c2ccc3c(n2)N2C[C@@H](CCCNc4cccc(n4)S(=O)(=O)NC3=O)CC2(C)C)C1=O (single isomer, unassigned) [Compound 247] | < 1000 | +++ (+++ is >60%)
16 | CC(C)C(COc1ccn(-c2ccc3c(n2)N2C[C@@H](CC2(C)C)OCCNc2cccc(n2)S(=O)(=O)NC3=O)n1)C(C)C (single isomer, unassigned) [Compound 248, 12,12-dimethyl-8-{3-[3-methyl-2-(propan-2-yl)butoxy]-1H-pyrazol-1-yl}-15-oxa-2λ^6-thia-3,9,11,18,23-pentaazatetracyclo[17.3.1.111,14.05,10]tetracosa-1(23),5(10),6,8,19,21-hexaene-2,2,4-trione] | < 1000 | ++ (++ is 30-60%)
17 | CC(C)C(COc1ccn(-c2ccc3c(n2)N2C[C@@H](CC2(C)C)OCCNc2cccc(n2)S(=O)(=O)NC3=O)n1)C(C)C (single isomer, unassigned) [Compound 249, 12,12-dimethyl-8-{3-[3-methyl-2-(propan-2-yl)butoxy]-1H-pyrazol-1-yl}-15-oxa-2λ^6-thia-3,9,11,18,23-pentaazatetracyclo[17.3.1.111,14.05,10]tetracosa-1(23),5(10),6,8,19,21-hexaene-2,2,4-trione] | < 1000 | +++ (+++ is >60%)
18 | CC1(C)C[C@H]2CCNc3cccc(n3)S(=O)(=O)NC(=O)c3ccc(-n4ccc(OCCC(C5CC5)C5CC5)n4)nc3N1C2 (single isomer, unassigned) [Compound 250, 11-[3-(3,3-Dicyclopropylpropoxy)-1H-pyrazol-1-yl]-7,7-dimethyl-17λ^6-thia-2,8,10,16,22-pentaazatetracyclo[16.3.1.15,8.09,14]tricosa-1(22),9,11,13,18,20-hexaene-15,17,17-trione] | < 1000 | ++ (++ is 30-60%)
19 | CC1(C)C[C@H]2CCNc3cccc(n3)S(=O)(=O)NC(=O)c3ccc(-n4ccc(OCCC(C5CC5)C5CC5)n4)nc3N1C2 (single isomer, unassigned) [Compound 251, 11-[3-(3,3-dicyclopropylpropoxy)-1H-pyrazol-1-yl]-7,7-dimethyl-17λ^6-thia-2,8,10,16,22-pentaazatetracyclo[16.3.1.15,8.09,14]tricosa-1(22),9,11,13,18,20-hexaene-15,17,17-trione] | < 1000 | ++ (++ is 30-60%)
20 | CC1(C)C[C@H]2CCCNc3cccc(n3)S(=N)(=O)NC(=O)c3ccc(-n4ccc(OCCC5(C(F)(F)F)CC5)n4)nc3N1C2 (single isomer, unassigned) [Compound 266, 2-Imino-12,12-dimethyl-8-(3-{2-[1-(trifluoromethyl)cyclopropyl]ethoxy}-1H-pyrazol-1-yl)-2λ^6-thia-3,9,11,18,23-pentaazatetracyclo[17.3.1.111,14.05,10]tetracosa-1(23),5,7,9,19,21-hexaene-2,4-dione] | < 1000 | ++ (++ is 30-60%)
21 | CC1(C)C[C@H]2CCCNc3cccc(n3)S(=N)(=O)NC(=O)c3ccc(-n4ccc(OCCC5(C(F)(F)F)CC5)n4)nc3N1C2 (single isomer, unassigned) [Compound 267, 2-imino-12,12-dimethyl-8-(3-{2-[1-(trifluoromethyl)cyclopropyl]ethoxy}-1H-pyrazol-1-yl)-2λ^6-thia-3,9,11,18,23-pentaazatetracyclo[17.3.1.111,14.05,10]tetracosa-1(23),5,7,9,19,21-hexaene-2,4-dione] | < 1000 | +++ (+++ is >60%)
22 | CC1(C)C[C@H]2CCCNc3cccc(n3)S(=N)(=O)NC(=O)c3ccc(-n4ccc(OCCC5(C(F)(F)F)CC5)n4)nc3N1C2 (single isomer, unassigned) [Compound 271, 2-Imino-12,12-dimethyl-8-(3-{2-[1-(trifluoromethyl)cyclopropyl]ethoxy}-1H-pyrazol-1-yl)-2λ^6-thia-3,9,11,18,23-pentaazatetracyclo[17.3.1.111,14.05,10]tetracosa-1(23),5,7,9,19,21-hexaene-2,4-dione] | < 1000 | +++ (+++ is >60%)

— US11866450B2, “Modulators of Cystic Fibrosis Transmembrane Conductance regulator, pharmaceutical compositions, methods of treatment, and process for making the modulators” (priority 2018, dated 2024)
